# Several values for one entry are separate records, joined by “and”; a condition that tells them apart may be missing. Equal entries are not always repeated.
# System: Mus musculus
# Assay: Analgesic activity in albino mouse assessed as forepaw licking/jumping latency time at 10 mg/kg, ip measured after 120 mins by hot plate test (reference value: 2.62 +/- 0.06 sec)
# Assay type: functional
# Details: 2 h
row,Compound,Time [s]
1,COc1cc(/C=C/C(=O)/C=C(O)/C=C/c2ccc(OC(=O)[C@@H](C)NC(=O)OCc3ccccc3)c(OC)c2)ccc1OC(=O)[C@@H](C)NC(=O)OCc1ccccc1,3.28

# System: Rattus norvegicus
# Assay: Anti-inflammatory activity in Wistar rat assessed as inhibition of carrageenan-induced paw edema at 10 mg/kg, ip pretreated for 1 hr followed by carrageenan challenge and measured after 4 hr relative to indomethacin
# Assay type: functional
# Details: time 5 hrs
row,Compound,inhibition in vivo at 10 mg/kg [%]
1,COc1cc(/C=C/C(=O)/C=C(O)/C=C/c2ccc(OC(=O)[C@@H](C)NC(=O)OCc3ccccc3)c(OC)c2)ccc1OC(=O)[C@@H](C)NC(=O)OCc1ccccc1,115

# System: Mus musculus
# Assay: Analgesic activity in albino mouse assessed as protection at 10 mg/kg, ip measured after 120 mins by hot plate test relative to indomethacin
# Assay type: functional
# Details: 2 h
row,Compound,Activity [%]
1,COc1cc(/C=C/C(=O)/C=C(O)/C=C/c2ccc(OC(=O)[C@@H](C)NC(=O)OCc3ccccc3)c(OC)c2)ccc1OC(=O)[C@@H](C)NC(=O)OCc1ccccc1,60

# System: Rattus norvegicus
# Assay: Antiinflammatory activity in Wistar rat model of carrageenan-induced paw edema assessed as reduction in thickness of paw edema at 10 mg/kg, ip pretreated for 1 hr followed by carrageenan challenge and measured after 24 hrs (reference value: 0.83 +/-0.08 mm)
# Assay type: functional
# Details: time 25 hrs
row,Compound,Activity [mm]
1,COc1cc(/C=C/C(=O)/C=C(O)/C=C/c2ccc(OC(=O)[C@@H](C)NC(=O)OCc3ccccc3)c(OC)c2)ccc1OC(=O)[C@@H](C)NC(=O)OCc1ccccc1,0.42

# System: Splenocyte
# Assay: Immunomodulatory activity in Swiss albino mouse splenocytes assessed as cell viability at 10 uM by measuring inhibition of stimulation index incubated for 72 hrs in presence of mitogenic stimulus phytohaemagglutinin by MTT assay relative to indomethacin
# Assay type: functional
# Details: read-out: Activity
row,Compound,viability at 10 µM [%]
1,COc1cc(/C=C/C(=O)/C=C(O)/C=C/c2ccc(OC(=O)[C@@H](C)NC(=O)OCc3ccccc3)c(OC)c2)ccc1OC(=O)[C@@H](C)NC(=O)OCc1ccccc1,76

# System: Mus musculus
# Assay: Analgesic activity in albino mouse assessed as forepaw licking/jumping latency time at 10 mg/kg, ip measured after 30 mins by hot plate test (reference value: 5.02 +/- 0.09 sec)
# Assay type: functional
# Details: 0.5 h
row,Compound,Time [s]
1,COc1cc(/C=C/C(=O)/C=C(O)/C=C/c2ccc(OC(=O)[C@@H](C)NC(=O)OCc3ccccc3)c(OC)c2)ccc1OC(=O)[C@@H](C)NC(=O)OCc1ccccc1,5.6

# System: Salmonella typhimurium
# Assay: Antibacterial activity against Salmonella typhimurium ATCC 19430 incubated for 18 hrs by agar dilution assay
# Assay type: functional, Salmonella enterica subsp. enterica serovar Typhimurium
# Details: Salmonella enterica
row,MIC,Compound
1,0.5 µg/mL and 0.642 µM,COc1cc(/C=C/C(=O)/C=C(O)/C=C/c2ccc(OC(=O)[C@@H](C)NC(=O)OCc3ccccc3)c(OC)c2)ccc1OC(=O)[C@@H](C)NC(=O)OCc1ccccc1

# System: Rattus norvegicus
# Assay: Antiinflammatory activity in Wistar rat model of carrageenan-induced paw edema assessed as reduction in thickness of paw edema at 10 mg/kg, ip pretreated for 1 hr followed by carrageenan challenge and measured after 2 hrs (reference value: 2.06 +/-0.09 mm)
# Assay type: functional
# Details: time 3 hrs
row,Compound,Activity [mm]
1,COc1cc(/C=C/C(=O)/C=C(O)/C=C/c2ccc(OC(=O)[C@@H](C)NC(=O)OCc3ccccc3)c(OC)c2)ccc1OC(=O)[C@@H](C)NC(=O)OCc1ccccc1,0.23

# System: Streptococcus pyogenes
# Assay: Antibacterial activity against Streptococcus pyogenes ATCC 19615 incubated for 18 hrs by agar dilution method
# Assay type: functional
# Details: not given
row,MIC,Compound
1,0.125 µg/mL and 0.161 µM,COc1cc(/C=C/C(=O)/C=C(O)/C=C/c2ccc(OC(=O)[C@@H](C)NC(=O)OCc3ccccc3)c(OC)c2)ccc1OC(=O)[C@@H](C)NC(=O)OCc1ccccc1

# System: Rattus norvegicus
# Assay: Anti-inflammatory activity in Wistar rat assessed as inhibition of carrageenan-induced paw edema at 10 mg/kg, ip pretreated for 1 hr followed by carrageenan challenge and measured after 3 hr relative to control (reference value: 0.00 +/-0.1 %)
# Assay type: functional
# Details: time 4 hrs
row,Compound,inhibition in vivo at 10 mg/kg [%]
1,COc1cc(/C=C/C(=O)/C=C(O)/C=C/c2ccc(OC(=O)[C@@H](C)NC(=O)OCc3ccccc3)c(OC)c2)ccc1OC(=O)[C@@H](C)NC(=O)OCc1ccccc1,95

# System: Splenocyte
# Assay: Immunomodulatory activity in Swiss albino mouse splenocytes assessed as cell viability at 10 uM by measuring stimulation index incubated for 72 hrs in presence of mitogenic stimulus phytohaemagglutinin by MTT assay (reference value: 1.00 +/- 0.24)
# Assay type: functional
# Details: not given
row,Compound,Activity_index
1,COc1cc(/C=C/C(=O)/C=C(O)/C=C/c2ccc(OC(=O)[C@@H](C)NC(=O)OCc3ccccc3)c(OC)c2)ccc1OC(=O)[C@@H](C)NC(=O)OCc1ccccc1,1.59

# System: Rattus norvegicus
# Assay: Anti-inflammatory activity in Wistar rat assessed as inhibition of carrageenan-induced paw edema at 10 mg/kg, ip pretreated for 1 hr followed by carrageenan challenge and measured after 24 hr relative to control (reference value: 0.00 +/-0.3 %)
# Assay type: functional
# Details: time 25 hrs
row,Compound,inhibition in vivo at 10 mg/kg [%]
1,COc1cc(/C=C/C(=O)/C=C(O)/C=C/c2ccc(OC(=O)[C@@H](C)NC(=O)OCc3ccccc3)c(OC)c2)ccc1OC(=O)[C@@H](C)NC(=O)OCc1ccccc1,49

# System: Mus musculus
# Assay: Analgesic activity in albino mouse assessed as protection at 10 mg/kg, ip measured after 30 mins by hot plate test (reference value: 0 %)
# Assay type: functional
# Details: 0.5 h
row,Compound,Activity [%]
1,COc1cc(/C=C/C(=O)/C=C(O)/C=C/c2ccc(OC(=O)[C@@H](C)NC(=O)OCc3ccccc3)c(OC)c2)ccc1OC(=O)[C@@H](C)NC(=O)OCc1ccccc1,11.6

# System: Staphylococcus aureus
# Assay: Antibacterial activity against Staphylococcus aureus ATCC 25923 incubated for 18 hrs by agar dilution method
# Assay type: functional
# Details: not given
row,MIC,Compound
1,0.5 µg/mL and 0.642 µM,COc1cc(/C=C/C(=O)/C=C(O)/C=C/c2ccc(OC(=O)[C@@H](C)NC(=O)OCc3ccccc3)c(OC)c2)ccc1OC(=O)[C@@H](C)NC(=O)OCc1ccccc1

# System: Rattus norvegicus
# Assay: Anti-inflammatory activity in Wistar rat assessed as inhibition of carrageenan-induced paw edema at 10 mg/kg, ip pretreated for 1 hr followed by carrageenan challenge and measured after 1 hr relative to control (reference value: 0.00 +/-0.02 %)
# Assay type: functional
# Details: time 2 hrs
row,Compound,inhibition in vivo at 10 mg/kg [%]
1,COc1cc(/C=C/C(=O)/C=C(O)/C=C/c2ccc(OC(=O)[C@@H](C)NC(=O)OCc3ccccc3)c(OC)c2)ccc1OC(=O)[C@@H](C)NC(=O)OCc1ccccc1,82

# System: Rattus norvegicus
# Assay: Antiinflammatory activity in Wistar rat model of carrageenan-induced paw edema assessed as reduction in thickness of paw edema at 10 mg/kg, ip pretreated for 1 hr followed by carrageenan challenge and measured after 4 hrs (reference value: 1.40 +/-0.10 mm)
# Assay type: functional
# Details: time 5 hrs
row,Compound,Activity [mm]
1,COc1cc(/C=C/C(=O)/C=C(O)/C=C/c2ccc(OC(=O)[C@@H](C)NC(=O)OCc3ccccc3)c(OC)c2)ccc1OC(=O)[C@@H](C)NC(=O)OCc1ccccc1,0

# System: Mus musculus
# Assay: Analgesic activity in albino mouse assessed as forepaw licking/jumping latency time at 10 mg/kg, ip measured after 90 mins by hot plate test (reference value: 2.72 +/- 0.01 sec)
# Assay type: functional
# Details: 1.5 h
row,Compound,Time [s]
1,COc1cc(/C=C/C(=O)/C=C(O)/C=C/c2ccc(OC(=O)[C@@H](C)NC(=O)OCc3ccccc3)c(OC)c2)ccc1OC(=O)[C@@H](C)NC(=O)OCc1ccccc1,3.42

# System: not listed separately
# Assay: Ulcerogenic activity in fasted albino mouse assessed as ulcer index in gastric mucosa at 10 mg/kg, po for 3 days (reference value: 0)
# Assay type: toxicity, organism-based
# Details: in vivo, 72 h, time 3 day
row,Compound,UI
1,COc1cc(/C=C/C(=O)/C=C(O)/C=C/c2ccc(OC(=O)[C@@H](C)NC(=O)OCc3ccccc3)c(OC)c2)ccc1OC(=O)[C@@H](C)NC(=O)OCc1ccccc1,0

# System: Mus musculus
# Assay: Analgesic activity in albino mouse assessed as protection at 10 mg/kg, ip measured after 90 mins by hot plate test (reference value: 0 %)
# Assay type: functional
# Details: 1.5 h
row,Compound,Activity [%]
1,COc1cc(/C=C/C(=O)/C=C(O)/C=C/c2ccc(OC(=O)[C@@H](C)NC(=O)OCc3ccccc3)c(OC)c2)ccc1OC(=O)[C@@H](C)NC(=O)OCc1ccccc1,25.7

# From ChEMBL document CHEMBL4765295, “Synthesis, pharmacological profile and 2D-QSAR studies of curcumin-amino acid conjugates as potential drug candidates” (Eur J Med Chem, 2020)
